The subject of one data set is Meth A tumor cells. In words: Tumor challenge with 5FU-treated or untreated Meth A cells, tumor growth. It counts as in vivo, BALB/cJ mice. The note with it: for growth of 5-FU treated vs un-treated Meth A cells in vivo (AUC): FIG. 3A, in vitro 5-FU treatment alone, P=0.07; for growth of 5-FU-treated vs un-treated Meth A cells (AUC) in mice previously immunized with 5-FU-treated 4T1 cells: challenge one week after 4T1, P=0.003. Here is the method:
(§1) FIG. 3. BALB/cJ mice were challenged (on the left flank) at day 0 with 150,000 5FU- treated or untreated 4T1 tumor cells. Seven days after the first tumor challenge, they were challenged (on the right flank) with 95,000 5FU- treated or untreated Meth A tumor cells and growth of both tumors was measured. […] Each line represents tumor growth in a single mouse. […] B. (Top panel) 4T1 (un-treated or in vitro-5FU treated) growth curves in 5FU-treated mice (5FU i.p. 100 mg/kg at day -7, 50 mg/kg at day 0 and 20 mg/kg every three days after the first tumor challenge). […] (Bottom panel) The same mice as the top panel were challenged with un-treated or 5FU-treated Meth A cells, one week after challenge with 4T1 cells.
(§2) As known in the art, 4T1 cells are a breast cancer cell line derived from the mammary gland tissue of mouse. Meth A cancer cells are methyl-cholantrene-induced mouse sarcoma cells. […] This Example analyzes whether treatment with 5-FU generates new antigenic entities (such as CiPAS), and if treatment of both cell types produces the same antigens in both cells. If this process occurs, the antigens should be processed and presented identically in both cells of the BALB/c haplotype.
(§3) First, we tested if treatment of cells in vitro with 5-FU, in and of itself, makes the cancer cells grow differently because of cell death, or another phenomenon.

A further data set concerns MCF10A p53−/−. Description: RT-PCR analysis of intron retention after 5-FU exposure. It counts as cell-based, human. The note with it: 300 μM 5-FU for 24 h. The protocol:
(§4) FIG. 2. […] P53 mutant MDA-MB-231 cells, p53wt MCF10A cells, and MCF10A cells with biallelic frameshift mutation in the p53 gene were treated or untreated with 300uM of 5-FU for 24 h. NMD was inhibited or not with 10 mM caffeine for 4 h before cytoplasmic RNA isolation. “*” symbols indicate RT-PCR amplicons with retained introns.
(§5) The following breast cell lines were used: MDA-MB-231 p53−/−, MCF10A p53+/+ cell line and the derivative of MCF10A p53−/−, all treated or untreated with 300 μM of 5-FU for 24 h. In addition, the NMD pathway was inhibited or not inhibited with caffeine for 4 h before cytoplasmic RNA isolation in order to detect the mRNA species that are degraded due to stop codons contained within retained introns.

For another data set, the system named is MDA-MB-231 p53−/−. The description is as above. In kind it is cell-based, human. The note with it: 300 μM 5-FU for 24 h. The protocol:
as §4, §5

A further data set relates to MCF10A p53+/+ cell line. Description: RT-PCR of cell cycle progression gene mRNA after 5-FU exposure. The note with it: 300 μM 5-FU for 24 h. It counts as cell-based, human. The protocol:
as §4, §5

In another data set the test system is MCF10A p53−/− KO cells. Description: RNA-Seq detection of CiPAS (retained-intron polypeptides). The note with it: cells treated with 5-FU and caffeine, not detected with caffeine alone. In kind it is cell-based, human. From the text:
(§6) The following Table 1 provides predicted-CiPAS and includes polypeptide sequences encoded by introns detected with high confidence in RNA-Seq generated from MDA-MB-231 and MCF10A p53−/− KO cells treated with 5-FU and caffeine and not detected in cells treated with caffeine alone. 38 and 76 CiPAS were detected in MDA-MB-231 and MCF10A p53−/− KO cells, respectively, including 18 shared CiPAS. Certain representative and non-limiting chemo-neoepitopes encoded by the CiPaS sequences are shown in bold, with overlapping amino acids in italics.

Another data set has as its system MDA-MB-231. Described as above. It counts as cell-based, human.
Source text: as §6

For another data set, the system named is 4T1 tumor cells. In words: Tumor challenge with 5FU-treated or untreated 4T1 cells, tumor growth. It counts as in vivo, BALB/cJ mice. The note with it: FIG. 3B top, 5FU-treated mice (i.p. 100 mg/kg day -7, 50 mg/kg day 0, 20 mg/kg every three days). Here is the method:
as §1, §2, §3

As for `O=c1[nH]cc(F)c(=O)[nH]1` [5-FU, 5-fluorouracil], the “growth of 5-FU treated vs un-treated Meth A cells in vivo (AUC)” value in the data set on Meth A tumor cells is listed as “grow identically”; in the data set with Meth A tumor cells (listed as 5FU), “grow similarly”. In the data set with Meth A tumor cells (FIG. 3B bottom), the “slower growth of 5-FU-treated Meth A cells in mice previously challenged with 5-FU-untreated 4T1 cells” value was “not seen”. The “growth of 5-FU-treated vs un-treated Meth A cells (AUC) in mice previously immunized with 5-FU-treated 4T1 cells” value is given as “grow more slowly” in the data set on Meth A tumor cells (FIG. 3B bottom) and “significantly lower” in the data set with Meth A tumor cells (FIG. 3B bottom, listed as 5FU). In addition, the “extent of retention of 6th intron of the CCNE2 gene” value is on record as “the whole intron is retained” in the data set with MCF10A p53−/− and “only part of the 6th intron of the CCNE2 gene is retained” in the data set on MDA-MB-231 p53−/−. The “intron retention in MCM10 and CCNE2 genes in response to 5-FU” value in the data set with MCF10A p53−/− (only in cells with mutant p53) and in the data set on MDA-MB-231 p53−/− (only in cells with mutant p53) was “intron retention” each time. Besides, in the data set on MCF10A p53+/+ cell line (data not shown), the “MCM10 mRNA in response to 5-FU” value is listed as “repressed”. The “transcription of the mRNA of the CCNE2 cell cycle progression gene in response to 5-FU” value in the data set on MCF10A p53+/+ cell line (only in MCF10A cells with p53+/+) is “repressed”. Besides, the “number of CiPAS detected” value in the data set on MCF10A p53−/− KO cells is recorded as 76 CiPAS; with MDA-MB-231 (cells treated with 5-FU and caffeine, not detected with caffeine alone), 38 CiPAS. In the data set with MDA-MB-231 (shared between MDA-MB-231 and MCF10A p53−/− KO cells, 5-FU and caffeine), the “number of shared CiPAS” value came to 18 CiPAS. Moreover, the entries for the “growth of 5-FU treated vs un-treated 4T1 cells in vivo (AUC)” value with 4T1 tumor cells and in the data set with 4T1 tumor cells (listed as 5FU) were “grow essentially identically” and “grow the same”, respectively. For the same compound, the “number of genes with overexpressed introns in 5-FU treated 4T1 samples” value in the data set on 4T1 cells amounted to 804 genes. For the same compound, the “number of introns overexpressed in 5-FU treated 4T1 samples” value with 4T1 cells worked out at 991 introns.

Source of the values: US20210381060A1, “CANCER SPECIFIC IMMUNOTHERAPEUTIC TARGETS GENERATED BY CHEMOTHERAPEUTIC DRUG TREATMENT” (Health Research, Inc., priority 2018, published 2021).
